From patent publication US20210060016A1, “ANTICANCER AGENT” (JAPANESE FOUNDATION FOR CANCER RESEARCH, priority 2017, published 2021) come the findings set out here.

This test has as its target T1, tankyrase-2 (Homo sapiens, UniProt Q9H2K2).
T1 sequence (Q9H2K2 1-1166): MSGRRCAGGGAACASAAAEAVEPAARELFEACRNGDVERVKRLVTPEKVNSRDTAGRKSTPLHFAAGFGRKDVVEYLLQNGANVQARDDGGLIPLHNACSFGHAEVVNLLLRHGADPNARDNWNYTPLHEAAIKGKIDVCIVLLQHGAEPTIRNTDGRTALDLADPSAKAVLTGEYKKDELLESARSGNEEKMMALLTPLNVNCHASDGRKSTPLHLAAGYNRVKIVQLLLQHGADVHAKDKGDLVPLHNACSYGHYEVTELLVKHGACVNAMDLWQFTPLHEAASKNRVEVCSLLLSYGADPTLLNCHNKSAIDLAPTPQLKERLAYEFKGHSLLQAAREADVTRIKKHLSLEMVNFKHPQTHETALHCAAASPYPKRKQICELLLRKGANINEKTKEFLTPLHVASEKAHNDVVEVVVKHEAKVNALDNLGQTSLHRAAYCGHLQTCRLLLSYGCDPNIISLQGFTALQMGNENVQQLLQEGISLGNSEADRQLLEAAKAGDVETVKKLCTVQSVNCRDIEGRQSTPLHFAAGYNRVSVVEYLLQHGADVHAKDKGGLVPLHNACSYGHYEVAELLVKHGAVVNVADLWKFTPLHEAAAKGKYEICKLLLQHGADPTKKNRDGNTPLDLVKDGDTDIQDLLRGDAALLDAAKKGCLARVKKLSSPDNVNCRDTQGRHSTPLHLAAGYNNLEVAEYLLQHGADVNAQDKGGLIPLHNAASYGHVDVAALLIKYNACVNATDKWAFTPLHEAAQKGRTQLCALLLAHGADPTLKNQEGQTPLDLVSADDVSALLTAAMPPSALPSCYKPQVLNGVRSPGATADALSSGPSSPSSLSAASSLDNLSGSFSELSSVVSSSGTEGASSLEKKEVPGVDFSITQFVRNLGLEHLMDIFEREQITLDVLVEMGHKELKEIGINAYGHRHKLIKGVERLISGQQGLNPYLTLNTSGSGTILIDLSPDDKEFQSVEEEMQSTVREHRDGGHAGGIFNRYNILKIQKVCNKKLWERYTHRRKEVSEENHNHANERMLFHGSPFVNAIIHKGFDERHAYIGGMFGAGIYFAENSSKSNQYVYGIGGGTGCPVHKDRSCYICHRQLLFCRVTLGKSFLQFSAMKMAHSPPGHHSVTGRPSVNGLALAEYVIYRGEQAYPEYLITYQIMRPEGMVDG
The test can be described thus: X-ray diffraction of tankyrase-2 crystal soaked with the compound. The class given is binding. From the text:
In the present invention, whether the tankyrase inhibitory compound is a nicotinamide-type compound or an adenosine-type compound can be determined by X-ray diffraction, more specifically a method in which a complex is crystallized from a mixed liquid of a tankyrase crystal prepared beforehand and the tankyrase inhibitory compound, and subjected to X-ray diffraction (soaking method), or a method in which a complex is crystallized from a mixed liquid having the tankyrase inhibitory compound coexisting with tankyrase in a state before the crystallization, and subjected to X-ray diffraction (co-crystallization). Whether the tankyrase inhibitory compound is a dual-type compound can be determined by preparing a crystal under any one of the above-described conditions, and performing X-ray diffraction.
X-ray diffraction data of a tankyrase-2 crystal soaked with the compound prepared in Compound Example 1 was measured with BL26B2 Beam Line in a large synchrotron radiation facility Spring-8 (Sayo-gun, Hyogo). The wavelength of the X-ray was 1.000 Å, and MX-225 (Rayonix, LLC) was used as a detector. The diffraction data was treated with XDS (Kabsch, 2010) and the CCP4 program (Winn et al., 2011).

As to `CCOc1ccc(-c2n[nH]nc2[C@H]2NC(=O)c3cccc(C)c3N2)cc1` [Compound Example 101, (2R)-2-[5-(4-Ethoxyphenyl)-2H-1,2,3-triazol-4-yl]-8-methyl-2,3-dihydro-1H-quinazolin-4-one], the “binding pocket type by X-ray diffraction” value is listed as “nicotinamide-type compound which binds to the nicotinamide binding pocket of tankyrase”.
